Results published in patent US8673881B2, “Compositions and methods for the treatment of inflammation” (A.T. Resolve Sarl, priority 2009, dated 2014).

Assays:
[1] = Chemical stability study, HPLC purity (% area) over time; format: physicochemical; conditions: for % Area Compound / % Area Impurity: 500 μg/mL ophthalmic formulation, pH 5.5, 5° C.; for time the reference solution was stable: reference solution in water/absolute ethanol (90/10 v/v), stored at 5° C.±3° C., protected from light
Procedure: The chemical stability of compounds 1001 and 1002 was measured via HPLC analysis of the purity of these compounds over time. The purity assay of active components using percent area (% area) and impurities reported as percent area (% area) were measured by HPLC using the following conditions:
A sample diluent was prepared with water/absolute ethanol (90/10 v/v).
Reference solutions of compounds 1001 and 1002 were prepared by weighing approximately 10 mg (±2 mg) of a 1 mg/mL stock solution of compound 1001 or 1002 into a 1 mL amber volumetric flask. Approximately 0.5 mL of sample diluent was added and the solution swirled to mix. The sample was diluted to volume with sample diluent and mixed well. The reference solution for compound 1001 was stable for up to 7 days stored at 5° C.±3° C., protected from light. The reference solution for compound 1002 was stable for up to 3 days stored at 5° C.±3° C., protected from light.
Ophthalmic formulations of compounds 1001 (0.994 g of a 52 mg/mL solution in propylene glycol) or compound 1002 (1.034 g of a 50 mg/mL solution in propylene glycol) were prepared at 500 μg/mL dose strength in potassium phosphate buffer (25 mM, pH 5.5, 0.34 g) with 0.2 M sodium hydroxide solution (q.s.), sodium chloride (0.327 g), polysorbate 80 (0.5% w/v), and purified water (q.s. to 100). Sample solutions of compounds 1001 and 1002 were each prepared by accurately weighing approximately 20 mg of the 500 μg/mL compound formulation into a 1 mL amber volumetric flask. Approximately 0.5 mL of sample diluent was added and the solution gently swirled to mix. The solution was diluted to volume with sample diluent and mixed well.
The following equation was used to calculate the compound 1001 or compound 1002 purity assay (% area) in each sample: Analogue Content(% area)=(Area of analog/Total area of all peaks≧0.10% area)×100.
Impurities≧0.10% area were integrated and reported as % area to 2 decimal places.
Tables 5 and 6 show the results of the chemical stability study of compounds 1001 and 1002, respectively, over the course of 8 weeks at 5° C.

[2] = Ocular PK (distribution) study in Dutch-belted rabbits, topical ocular dosing, compound 1003 measured by LC/MS/MS; format: in vivo; conditions: topical ocular administration of compounds 1001 and 1002 to rabbits, compared with each other
Procedure: The ocular distribution of compound 1001,
[drawing 220] in the ocular tissues of Dutch-belted rabbits when administered topically to the surface of the eye was evaluated.
Healthy, young adult Dutch-belted rabbits (male/female; at least 1.5 kg) were acclimated for at least 7 days prior to initiation of the study. Prior to the initiation of the study, the eyes of the rabbits were examined to ensure that the eyes were free of any defects that may affect the integrity of the study. Examinations were performed by a qualified observer.
Animals were dosed via the topical ocular route using a pipettor system which delivered a 30 μL dose to each eye. Each animal was dosed at T=0. The right eye received a dose concentration of 300 μg/mL of compound 1001 and the left eye received a dose concentration of 300 μg/mL of compound 1002. At the intervals noted in Table 3, the animals were sacrificed. […]
Spiking solutions for standards were prepared by diluting compound 1003 as its sodium salt (e.g., M is Na) (dissolved in ethanol) in ethanol spanning the concentration range of 0.100 to 4000 ng/mL of compound 1003. Two standard curves were extracted and subsequently analyzed one before and one after the samples. […]
Compound 1003 in the homogenized/extracted/dried/reconstituted samples was analyzed by LC/MS/MS using D4-PGE2 as the internal standard. […]

[3] = tested on: signs and symptoms of dry eye; assay: Study of compound 1001 in dry eye: multi-center, double-masked, randomized, placebo-controlled; format: in vivo, human patients; conditions: for change in ocular discomfort as compared to vehicle (ORA Ocular Discomfort Scale), improvement: dose C (275.6 μg/mL)
Excerpt: The objective of this study was to compare the efficacy of compound 1001 to placebo (vehicle minus active) for the treatment of the signs and symptoms of dry eye, in a multi-center, double-masked, randomized, placebo-controlled study in which 100 human patients were equally randomized into one of three active treatment groups or placebo and all treatment groups were exposed to identical humidity, temperature, and wind conditions which exacerbated the symptoms of dry eye. During a 14 day study run-in period prior to randomization (e.g., day −14 to day 0), all patients received placebo bilaterally two times per day (BID). At the time of treatment randomization (e.g., day 0), patients were exposed to 90 minutes of identical humidity, temperature, and wind conditions which exacerbated the symptoms of dry eye after which patients were stratified based on the following criterion: Central corneal staining post-exposure<2.5 or >3.0. Patients eligible to be randomized received one of the following treatments to be administered as approximately a 30 μL drop to both eyes BID: 1) Compound 1001 at dose A (26.4 μg/mL) Ophthalmic Solution; 2) Compound 1001 at dose B (87.8 μg/mL) Ophthalmic Solution; 3) Compound 1001 at dose C (275.6 μg/mL) Ophthalmic Solution; 4) Placebo Ophthalmic Solution (Vehicle minus active). Brief Summary of Visit Schedule. […] The primary endpoint of mean ocular discomfort in the conditions for exacerbating the symptoms of dry eye using the ORA Ocular Discomfort Scale (during the 90 minute exposure) was summarized statistically (m, mean, standard deviation, median, min and max), and analyzed with 1-sided t-tests comparing the best dose to placebo with a p-value<0.025 considered significant. […] Ocular discomfort during this exposure period was measured using the ORA Ocular Discomfort Scale with the ocular discomfort score being the average of all time points during exposure. Ocular discomfort was measured again at visit 5 (e.g., day 29). […] Symptoms of grittiness, dryness were measured on environmental day 28 on a visual analog scale of 0-5.

% Area Compound ([1]; 2 weeks) [% Area]	% Area Impurity ([1]; 2 weeks) [% Area]	% Area Compound ([1]; 4 weeks) [% Area]	% Area Impurity ([1]; 4 weeks) [% Area]	chemical stability compared (percent purity over time) ([1]; 8 weeks at 5° C., compound 1001 versus compound 1002)	% Area Compound ([1]; 8 weeks) [% Area]	% Area Impurity ([1]; 8 weeks) [% Area]	% Area Compound ([1]; Initial) [% Area]	% Area Impurity ([1]; Initial) [% Area]	time the reference solution was stable [1]	levels of compound 1003 observed in the aqueous humor, the vitreous and the cornea (FIG. 1) [2]	% Area Compound ([1]; 1 week) [% Area]	% Area Impurity ([1]; 1 week) [% Area]	Compound	dryness, visual analog scale of 0-5, change as compared to vehicle ([3]; day 28, dose C (275.6 μg/mL) topically, FIG. 4)	change in ocular discomfort as compared to vehicle (ORA Ocular Discomfort Scale), improvement ([3]; day 28, approx. 30 μL drop to both eyes BID, FIG. 2) [%]	change in ocular discomfort as compared to vehicle (ORA Ocular Discomfort Scale), improvement ([3]; day 29, 24 hours after last treatment, FIG. 3) [%]
99.03	0.97	99.39	0.61	better chemical stability	99.31	0.69	99.55	0.45	up to 7 days	comparable levels	–	–	C#CC[C@@H](O)/C=C/C=C/C#C[C@@H](O)CCCC(=O)OC(C)C [Compound 1001]	significant change	~27	~36
97.46	2.55	96.54	3.46	–	94.95	5.05	98.29	1.71	up to 3 days	comparable levels	97.58	2.43	C#CC[C@@H](O)/C=C/C=C/C#C[C@@H](O)CCCC(=O)OC [Compound 1002]	–	–	–
